Source: ChEMBL document CHEMBL2157909, “Design, synthesis, spectral and biological evaluation of novel 1-allyl substituted 2,6-diphenylpiperidin-4-ones and its derivatives of oximes/oxime ethers” (2012)
Converted amounts (≈) assume the structure as drawn.

Columns and labels:
Penicillium chrysogenum = assay: Antifungal activity against Penicillium chrysogenum ATCC 28089 after 72 to 96 hrs by two fold serial dilution method; type: functional
Aspergillus niger = assay: Antifungal activity against Aspergillus niger ATCC 635 after 72 to 96 hrs by two fold serial dilution method; type: functional
Fusarium oxysporum = assay: Antifungal activity against Fusarium oxysporum ATCC 48112 after 72 to 96 hrs by two fold serial dilution method; type: functional
Salmonella typhi = assay: Antibacterial activity against Salmonella typhi ATCC 25021 after 24 hrs by two fold serial dilution method; type: functional, Salmonella enterica subsp. enterica serovar Typhi; settings: Salmonella enterica, ATCC 25021, 24 h
Rhizopus = assay: Antifungal activity against Rhizopus sp. ATCC 2842 after 72 to 96 hrs by two fold serial dilution method; type: functional
Escherichia coli = assay: Antibacterial activity against Escherichia coli ATCC 26032 after 24 hrs by two fold serial dilution method; type: functional; settings: ATCC 26032, 24 h
Pseudomonas = assay: Antibacterial activity against Pseudomonas ATCC 27853 after 24 hrs by two fold serial dilution method; type: functional; settings: ATCC 27853, 24 h
Aspergillus flavus = assay: Antifungal activity against Aspergillus flavus ATCC 525 after 72 to 96 hrs by two fold serial dilution method; type: functional
Bacillus subtilis = assay: Antibacterial activity against Bacillus subtilis ATCC 530 after 24 hrs by two fold serial dilution method; type: functional; settings: ATCC 530, 24 h
Staphylococcus aureus = assay: Antibacterial activity against Staphylococcus aureus ATCC 25930 after 24 hrs by two fold serial dilution method; type: functional; settings: ATCC 25930, 24 h

SMILES | MIC (Penicillium chrysogenum) [µg/mL] | MIC (Aspergillus niger) [µg/mL] | MIC (Fusarium oxysporum) [µg/mL] | MIC (Salmonella typhi) [µg/mL] | MIC (Rhizopus) [µg/mL] | MIC (Escherichia coli) [µg/mL] | MIC (Pseudomonas) [µg/mL] | MIC (Aspergillus flavus) [µg/mL] | MIC (Bacillus subtilis) [µg/mL] | MIC (Staphylococcus aureus) [µg/mL]
C=CCN1[C@@H](c2ccccc2)CC(=O)C[C@H]1c1ccccc1 | 12.5 (≈ 42.9 µM) | 25 (≈ 85.8 µM) | 100 (≈ 343 µM) | 50 (≈ 172 µM) | 50 (≈ 172 µM) | 200 (≈ 686 µM) | 25 (≈ 85.8 µM) | 100 (≈ 343 µM) | 100 (≈ 343 µM) | 6.25 (≈ 21.4 µM)
C=CCN1[C@H](c2ccccc2)[C@@H](C)C(=O)[C@@H](C)[C@@H]1c1ccccc1 | 50 (≈ 157 µM) | 100 (≈ 313 µM) | 50 (≈ 157 µM) | 100 (≈ 313 µM) | 200 (≈ 626 µM) | 100 (≈ 313 µM) | 50 (≈ 157 µM) | 100 (≈ 313 µM) | 25 (≈ 78.3 µM) | 12.5 (≈ 39.1 µM)
C=CCN1[C@@H](c2ccccc2)C/C(=N/O)C[C@H]1c1ccccc1 (relative stereo) | 50 (≈ 163 µM) | 12.5 (≈ 40.8 µM) | 50 (≈ 163 µM) | 100 (≈ 326 µM) | 25 (≈ 81.6 µM) | 25 (≈ 81.6 µM) | 50 (≈ 163 µM) | 25 (≈ 81.6 µM) | 6.25 (≈ 20.4 µM) | 50 (≈ 163 µM)
C=CCN1[C@H](c2ccccc2)[C@@H](C)/C(=N/O)[C@@H](C)[C@@H]1c1ccccc1 (relative stereo) | 100 (≈ 299 µM) | 50 (≈ 149 µM) | 50 (≈ 149 µM) | 100 (≈ 299 µM) | 200 (≈ 598 µM) | 50 (≈ 149 µM) | 50 (≈ 149 µM) | 100 (≈ 299 µM) | 25 (≈ 74.7 µM) | 50 (≈ 149 µM)
C=CCN1[C@H](c2ccccc2)C/C(=N\O)[C@@H](CC)[C@@H]1c1ccccc1 (relative stereo) | 50 (≈ 149 µM) | 12.5 (≈ 37.4 µM) | 25 (≈ 74.7 µM) | 25 (≈ 74.7 µM) | 50 (≈ 149 µM) | 100 (≈ 299 µM) | 50 (≈ 149 µM) | 6.25 (≈ 18.7 µM) | 12.5 (≈ 37.4 µM) | 25 (≈ 74.7 µM)
C=CCN1[C@@H](c2ccccc2)C(C)(C)/C(=N/O)C[C@H]1c1ccccc1 (relative stereo) | 12.5 (≈ 37.4 µM) | 25 (≈ 74.7 µM) | 50 (≈ 149 µM) | 100 (≈ 299 µM) | 25 (≈ 74.7 µM) | 100 (≈ 299 µM) | 50 (≈ 149 µM) | 25 (≈ 74.7 µM) | 25 (≈ 74.7 µM) | 12.5 (≈ 37.4 µM)
C=CCN1[C@H](c2ccccc2)C/C(=N\OCc2ccccc2)[C@@H](C)[C@@H]1c1ccccc1 (relative stereo) | 100 (≈ 244 µM) | 50 (≈ 122 µM) | 200 (≈ 487 µM) | 12.5 (≈ 30.4 µM) | 25 (≈ 60.9 µM) | 25 (≈ 60.9 µM) | 50 (≈ 122 µM) | 50 (≈ 122 µM) | 6.25 (≈ 15.2 µM) | 50 (≈ 122 µM)
C=CCN1[C@H](c2ccc(C)cc2)C/C(=N\OCc2ccccc2)[C@@H](C)[C@@H]1c1ccc(C)cc1 (relative stereo) | 6.25 (≈ 14.2 µM) | 12.5 (≈ 28.5 µM) | 100 (≈ 228 µM) | 50 (≈ 114 µM) | 50 (≈ 114 µM) | 200 (≈ 456 µM) | 100 (≈ 228 µM) | 100 (≈ 228 µM) | 50 (≈ 114 µM) | 100 (≈ 228 µM)
C=CCN1[C@H](c2ccc(Cl)cc2)C/C(=N\OCc2ccccc2)[C@@H](C)[C@@H]1c1ccc(Cl)cc1 (relative stereo) | 6.25 (≈ 13 µM) | 25 (≈ 52.1 µM) | 25 (≈ 52.1 µM) | 50 (≈ 104 µM) | 6.25 (≈ 13 µM) | 12.5 (≈ 26.1 µM) | 100 (≈ 209 µM) | 12.5 (≈ 26.1 µM) | 25 (≈ 52.1 µM) | 6.25 (≈ 13 µM)
C=CCN1[C@H](c2ccc(OC)cc2)C/C(=N\OCc2ccccc2)[C@@H](C)[C@@H]1c1ccc(OC)cc1 (relative stereo) | 50 (≈ 106 µM) | 12.5 (≈ 26.6 µM) | 6.25 (≈ 13.3 µM) | 25 (≈ 53.1 µM) | 25 (≈ 53.1 µM) | 100 (≈ 212 µM) | 6.25 (≈ 13.3 µM) | 100 (≈ 212 µM) | 50 (≈ 106 µM) | 12.5 (≈ 26.6 µM)
C=CCN1[C@@H](c2ccccc2)C/C(=N/OCc2ccccc2)C[C@H]1c1ccccc1 (relative stereo) | 100 (≈ 252 µM) | 12.5 (≈ 31.5 µM) | 50 (≈ 126 µM) | 100 (≈ 252 µM) | 50 (≈ 126 µM) | 6.25 (≈ 15.8 µM) | 200 (≈ 504 µM) | 100 (≈ 252 µM) | 25 (≈ 63 µM) | 50 (≈ 126 µM)
C=CCN1[C@H](c2ccccc2)[C@@H](C)/C(=N/OCc2ccccc2)[C@@H](C)[C@@H]1c1ccccc1 (relative stereo) | 50 (≈ 118 µM) | 200 (≈ 471 µM) | 50 (≈ 118 µM) | 50 (≈ 118 µM) | 100 (≈ 236 µM) | 100 (≈ 236 µM) | 25 (≈ 58.9 µM) | 100 (≈ 236 µM) | 100 (≈ 236 µM) | 12.5 (≈ 29.4 µM)
